# Results as given in patent US11840686B2, “Modulation of prekallikrein (PKK) expression” (Ionis Pharmaceuticals, Inc., priority 2013, dated 2023).
# Strand notation (5' to 3'): a small letter for the sugar, then the base; units joined by * are phosphorothioate-linked, units joined directly phosphodiester-linked; [ ] holds rarer units or linkages, { } end groups; capitals alone tell only the bases. e = 2'-O-(2-methoxyethyl) (MOE); [5mC] = 5-methylcytosine; d = 2'-deoxy (DNA)
# What was measured:
# human PKK mRNA [1] = assay: Dose-dependent antisense inhibition of human PKK in HepaRG cells, 0.19-5.00 uM (Example 5); assay type: cell-based
# Summary of the method: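 PKK mRNA knockdown was measured by real-time PCR (primer probe set RTS3454) about 16 h after electroporating 20,000 HepaRG cells per well with oligonucleotide at four doses from 0.19 to 5.00 μM. Levels were adjusted to RIBOGREEN-measured total RNA, and IC50 values were calculated.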
# human PKK mRNA [2] = assay: Antisense inhibition of human PKK mRNA in HepaRG cells, 5,000 nM (Example 2); assay type: cell-based
# Summary of the method: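 qRT-PCR (RTS3454) read-out, RIBOGREEN-normalized; % inhibition vs untreated cells. HepaRG, 20,000 cells/well, electroporation, 5,000 nM ASO, ~24 h.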
# [3] = Table 34, HepaRG, electroporation, ~16 h
# [4] = HepaRG cells, electroporation, approximately 16 hours, Table 37
# [5] = HepaRG cells, electroporation, approximately 16 hours, Table 40
# [6] = 4 point dose response, HepaRG cells, Table 40
# [7] = HepaRG cells, electroporation, approximately 16 hours, Table 36
# [8] = HepaRG cells, electroporation, approximately 16 hours, Table 35
substance,measurement,setting,value
547413 (eG*eT*eG*eA*eA*dA*dA*dA*d[5mC]*dT*dG*dA*d[5mC]*dA*dG*e[5mC]*eG*eA*eA*eT; antisense) [compound 547413],percent inhibition of PKK at 0.19 μM,human PKK mRNA [1]; [3],0%
same,percent inhibition of PKK at 0.56 μM,human PKK mRNA [1]; [3],0%
same,percent inhibition of PKK at 1.67 μM,human PKK mRNA [1]; [3],41%
same,percent inhibition of PKK at 5.00 μM,human PKK mRNA [1]; [3],83%
same,IC50,"human PKK mRNA [1]; Table 34, PKK mRNA, HepaRG, electroporation, ~16 h",2200 nM
same,% inhibition,"human PKK mRNA [2]; Table 8, HepaRG cells, electroporation with 5,000 nM antisense oligonucleotide, approx. 24 hours, PKK mRNA by RT-PCR (RTS3454), relative to untreated control cells",94%
548752 (antisense e[5mC]*eA*e[5mC]*eT*dG*dT*dA*d[5mC]*dT*dA*dG*dT*dT*dT*e[5mC]*e[5mC]*eT*eA) [compound 548752],percent inhibition of PKK at 0.19 μM,human PKK mRNA [1]; [4],0%
same,percent inhibition of PKK at 0.56 μM,human PKK mRNA [1]; [4],0%
same,percent inhibition of PKK at 1.67 μM,human PKK mRNA [1]; [4],51%
same,percent inhibition of PKK at 5.00 μM,human PKK mRNA [1]; [4],90%
same,IC50,"human PKK mRNA [1]; 4 point dose response, HepaRG cells, Table 37",1900 nM
same,% inhibition,"human PKK mRNA [2]; human PKK mRNA, HepaRG cells, 5,000 nM antisense oligonucleotide, Table 18",89%
547019 (eG*eA*eT*e[5mC]*eG*dG*dT*dG*dG*dT*dG*dG*dG*dA*dT*eT*eG*eG*eT*e[5mC]; antisense) [compound 547019],percent inhibition of PKK at 0.19 μM,human PKK mRNA [1]; [5],0%
same,percent inhibition of PKK at 0.56 μM,human PKK mRNA [1]; [5],6%
same,percent inhibition of PKK at 1.67 μM,human PKK mRNA [1]; [5],54%
same,percent inhibition of PKK at 5.00 μM,human PKK mRNA [1]; [5],86%
same,IC50,human PKK mRNA [1]; [6],1600 nM
same,% inhibition,"human PKK mRNA [2]; HepaRG cells, 5,000 nM antisense oligonucleotide, 5-10-5 gapmers, Table 17",83%
546897 (eA*eG*eT*eA*eT*d[5mC]*dA*d[5mC]*dT*dG*dT*d[5mC]*d[5mC]*dT*dA*eT*eG*eT*e[5mC]*eA; antisense) [compound 546897],percent inhibition of PKK at 0.19 μM,human PKK mRNA [1]; [7],40%
same,percent inhibition of PKK at 0.56 μM,human PKK mRNA [1]; [7],56%
same,percent inhibition of PKK at 1.67 μM,human PKK mRNA [1]; [7],71%
same,percent inhibition of PKK at 5.00 μM,human PKK mRNA [1]; [7],95%
same,IC50,"human PKK mRNA [1]; 4 point dose response, HepaRG cells, Table 36",400 nM
same,"percent inhibition of PKK mRNA, 0.19 μM","human PKK mRNA [1]; HepaRG cells, 0.19 μM antisense oligonucleotide",16%
same,"percent inhibition of PKK mRNA, 0.56 μM","human PKK mRNA [1]; HepaRG cells, 0.56 μM antisense oligonucleotide",17%
same,"percent inhibition of PKK mRNA, 1.67 μM","human PKK mRNA [1]; HepaRG cells, 1.67 μM antisense oligonucleotide",69%
same,"percent inhibition of PKK mRNA, 5.00 μM","human PKK mRNA [1]; HepaRG cells, 5.00 μM antisense oligonucleotide",97%
same,IC50,"human PKK mRNA [1]; HepaRG cells, 0.19-5.00 μM",800 nM
same,% inhibition,"human PKK mRNA [2]; human PKK mRNA, HepaRG cells, 5-10-5 motif oligonucleotides targeting SEQ ID NO: 1 and 10",90%
546216 (antisense e[5mC]*eT*eG*eG*eA*dG*dT*dG*dA*dG*dA*dA*d[5mC]*d[5mC]*d[5mC]*eT*eG*eG*e[5mC]*eA) [compound 546216],percent inhibition of PKK at 0.19 μM,human PKK mRNA [1]; [8],62%
same,percent inhibition of PKK at 0.56 μM,human PKK mRNA [1]; [8],69%
same,percent inhibition of PKK at 1.67 μM,human PKK mRNA [1]; [8],88%
same,percent inhibition of PKK at 5.00 μM,human PKK mRNA [1]; [8],88%
same,percent inhibition of PKK at 5.00 μM,"human PKK mRNA [1]; HepaRG cells, electroporation, approximately 16 hours, Table 41",98%
same,percent inhibition of PKK at 0.19 0μM,"human PKK mRNA [1]; 0.19 0μM, HepaRG cells, electroporation, approximately 16 hours, Table 41",23%
same,percent inhibition of PKK at 0.56 0μM,"human PKK mRNA [1]; 0.56 0μM, HepaRG cells, electroporation, approximately 16 hours, Table 41",78%
same,percent inhibition of PKK at 1.67 1μM,"human PKK mRNA [1]; 1.67 1μM, HepaRG cells, electroporation, approximately 16 hours, Table 41",95%
same,IC50,"human PKK mRNA [1]; 4 point dose response, HepaRG cells, Table 41",< 200 nM
same,% inhibition,"human PKK mRNA [2]; Table 7, HepaRG cells, electroporation with 5,000 nM antisense oligonucleotide, approx. 24 hours, PKK mRNA by RT-PCR (RTS3454), relative to untreated control cells",93%
547712 (antisense e[5mC]*e[5mC]*e[5mC]*e[5mC]*eA*dT*dG*dG*dT*dA*d[5mC]*d[5mC]*dA*dA*dA*eG*e[5mC]*e[5mC]*eA*eT) [compound 547712],percent inhibition of PKK at 0.19 μM,human PKK mRNA [1]; [5],0%
same,percent inhibition of PKK at 0.56 μM,human PKK mRNA [1]; [5],5%
same,percent inhibition of PKK at 1.67 μM,human PKK mRNA [1]; [5],21%
same,percent inhibition of PKK at 5.00 μM,human PKK mRNA [1]; [5],62%
same,IC50,human PKK mRNA [1]; [6],3800 nM
same,% inhibition,"human PKK mRNA [2]; HepaRG cells, 5,000 nM antisense oligonucleotide, 5-10-5 gapmers, Table 16",79%
